Entries after “also recorded” stand apart in the source; their conditions may differ.
What was measured:
PAR2 = molecular target: T1, PAR2 (Mus musculus, UniProt P55086); conditions: demonstrated in WT, but not PAR2−/− mice; cited from earlier work
T1 sequence (P55086 26-399): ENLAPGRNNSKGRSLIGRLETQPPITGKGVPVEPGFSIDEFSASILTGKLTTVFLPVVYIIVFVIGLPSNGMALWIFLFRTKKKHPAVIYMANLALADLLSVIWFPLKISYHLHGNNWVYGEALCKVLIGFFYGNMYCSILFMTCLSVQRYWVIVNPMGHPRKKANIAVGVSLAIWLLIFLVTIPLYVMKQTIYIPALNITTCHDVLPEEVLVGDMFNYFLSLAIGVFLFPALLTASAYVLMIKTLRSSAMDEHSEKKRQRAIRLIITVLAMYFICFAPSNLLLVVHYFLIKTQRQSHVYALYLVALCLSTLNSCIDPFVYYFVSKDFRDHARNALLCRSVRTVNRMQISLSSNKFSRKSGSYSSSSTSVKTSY

EGFR = molecular target: T2, EGFR (Homo sapiens, UniProt P00533); experiment: EGFR phosphorylation in serum-starved Caco-2 cells (immunoprecipitation / Western blot); type: cell-based; conditions: for EGFR phosphorylation compared with single chain zonulin: two-chain mature HP2 10 ml/ml as printed, Caco-2, FIG. 5D
T2 construct: serum-starved, high EGFR-expressing Caco-2 cells; endogenous in cells; host or cells: Caco-2
Procedure: PAR2 expression in Caco-2 cells was silenced using 2 different PAR2 siRNAs [HSS103471 and HSS103473 (50 nM each); Invitrogen].
The effect of zonulin on ex vivo and in vivo intestinal permeability was performed as described (8, 14) and reported above. To determine whether zonulin can activate EGFR, increasing concentrations of either zonulin or two-chain mature HP2 were added for increasing exposure times to serum-starved, high EGFR-expressing Caco-2 cells. The cells were lysed and processed for WB with anti-phospho EGFR (Y1068) Ab (Cell Signaling Technol. Inc.) as reported (40).
To determine whether zonulin can activate EGFR, increasing concentrations of baculovirus-derived, recombinant zonulin were added to Caco-2 intestinal epithelial cells. The cells were lysed, immunoprecipitated with anti-EGFR Ab, and processed for phosphotyrosine immunoblotting (PY-Plus).

129/SvEv WT mice = experiment: In vivo gastrointestinal permeability with sugar probes (lactulose/mannitol, sucrose); design: species or system mouse; conditions: for small intestinal permeability (lacman ratio) vs BSA-treated controls / gastroduodenal permeability (sucrose fractional excretion) vs BSA-treated controls: 170 mg/mouse [sic], gavage, challenge day vs 3 days before; for small intestinal permeability (lacman ratio) vs BSA-treated controls: FIG. 4A; for gastroduodenal permeability (sucrose fractional excretion) vs BSA-treated controls: FIG. 4B
Procedure: They were acclimatized to the experimental techniques for 3 wk, by fasting the animals for 3 h, gavaging the animals with a sugar probe, and placing them in metabolic cages twice each wk. On the day of protein challenge, the animals received either 170 micrograms of the purified single-chain zonulin in a 60 microliter solution or a similar amount of purified 2-chain cleaved HP2, together with the sugar gavage as described (4). […] Two days after the drug challenge day, mice were again placed in metabolic cages to measure their recovery from the treatment.
To establish whether zonulin might alter intestinal permeability in vivo, mice were gavaged with the single chain recombinant pre-HP2 protein (170 mg/mouse), and gastroduodenal and small intestinal permeability tested using specific sugar probes (sucrose and lactulose/mannitol, respectively) as described (14).

[1] = test system: C57BL/6 WT murine small intestine segments; experiment: Ex vivo intestinal permeability (TEER) in the microsnapwell system; type: cell-based, mouse; conditions: for TEER change / intestinal permeability, dose-response experiment: C57BL/6 WT segments, zonulin 5-50 μg/well, trypsin-cleaved pre-HP2 50 μg/well
Procedure: The effect of zonulin/pre-HP2 on ex vivo intestinal permeability was monitored in the microsnapwell system as described (3). Briefly, segments of small intestine from C57BL/6 WT mice were mounted onto the microsnapwell system, and their luminal side was exposed for 30 min to medium alone or to the medium containing increasing concentrations of the purified recombinant zonulin. TEER was measured at time 0 and at 30-min time intervals for a period of 2 h using a planar electrode (Endohm SNAP electrode attached to an Evom-G WPI analyzer; World Precision Instruments) and expressed in Ω/cm^2 after normalization. […] In another set of experiments, zonulin was tested both in C57BL/6 WT and PAR2−/− mice. […]
Recombinant pre-HP2 (from now on defined as zonulin) was applied to WT C57BL/6 murine small intestine segments mounted in microsnapwells.

Molecule: FCIGRL [AT1002]
- changes in TEER (PAR2): PAR2-dependent changes in TEER

Molecule: zonulin: Recombinant human haptoglobin-2 precursor (pre-HP2), uncleaved single chain, expressed in a baculovirus system
- concentration at which tyrosine phosphorylation of EGFR increased (EGFR; Caco-2 cells, anti-EGFR IP, PY-Plus blot, FIG. 5A): ≥ 3 mg/mL
- concentration at which the dose-dependent increase in EGFR phosphorylation reached a plateau (EGFR; serum-starved Caco-2 cells, FIG. 5A): 3 ml/ml
- EGFR phosphorylation vs media (EGFR; zonulin 10 ml/well as printed, alone, serum-starved Caco-2, FIG. 5B): increase in EGFR phosphorylation
- small intestinal permeability (lacman ratio) vs BSA-treated controls (129/SvEv WT mice): increases
- small intestinal permeability (lacman ratio) vs BSA-treated controls (129/SvEv WT mice; listed as Zonulin/preHP2): increased
- gastroduodenal permeability (sucrose fractional excretion) vs BSA-treated controls (129/SvEv WT mice): increases
- gastroduodenal permeability (sucrose fractional excretion) vs BSA-treated controls (129/SvEv WT mice; listed as Zonulin/preHP2): increased
- time for small intestinal permeability to return to pre-challenge values (129/SvEv WT mice; after zonulin challenge, FIG. 4C): ≤ 48 h
- time for gastroduodenal permeability to return to pre-challenge values (129/SvEv WT mice; after zonulin challenge, FIG. 4D): ≤ 48 h
- TEER change / intestinal permeability, dose-response experiment ([1]; FIG. 3): increased intestinal permeability in C57BL/6 WT mice in a dose-and time-dependent manner
- TEER change in wild-type intestinal segments ([1]; C57BL/6 WT, 10 μg/well, baseline vs 90 min, FIG. 5C, 6B): decreased TEER; also recorded: significant drop in TEER
- TEER change in PAR2−/− intestinal segments ([1]; PAR2−/− mice, 10 mg zonulin as printed, time 0 vs 90 min, FIG. 6B): failed to reduce TEER; also recorded: did not increase intestinal permeability
- concentration at which TEER decreased (increased permeability) ([1]; added to mucosal (luminal) aspect of WT C57BL/6 small intestine segments, FIG. 3): ≥ 40 µg/mL
- concentration inducing significant drop in TEER ([1]; luminal side, C57BL/6 WT, starting at 60 min post-exposure, tested 5, 10, 25, 50 μg/well, FIG. 3): 10 μg/well

Molecule: COc1cc2ncnc(Nc3cccc(Cl)c3)c2cc1OC [AG1478, reference compound]
- effect on zonulin-induced drop in TEER ([1]; 5 μM AG1478 with zonulin 10 μg/well, C57BL/6 WT, 90 min, FIG. 5C): abolished TEER reduction; also recorded: prevented

B1: two-chain HP2: Cleaved two-chain mature HP2 (α2 and β chains) obtained by trypsin digestion of single chain zonulin (protein)
chain 1: VDSGNDVTDIADDGCPKPPEIAHGYVEHSVRYQCKNYYKLRTEGDGVYTLNDKKQWINKAVGDKLPECEADDGCPKPPEIAHGYVEHSVRYQCKNYYKLRTEGDGVYTLNNEKQWINKAVGDKLPECEAVCGKPKNPANPVQR
chain 2: ILGGHLDAKGSFPWQAKMVSHHNLTTGATLINEQWLLTTAKNLFLNHSENATAKDIAPTLTLYVGKKQLVEIEKVVLHPNYSQVDIGLIKLKQKVSVNERVMPICLPSKDYAEVGRVGYVSGWGRNANFKFTDHLKYVMLPVADQDQCIRHYEGSTVPEKKTPKSPVGVQPILNEHTFCAGMSKYQEDTCYGDAGSAFAVHDLEEDTWYATGILSFDKSCAVAEYGVYVKVTSIQDWVQKTIAENHHHHHH
- EGFR phosphorylation compared with single chain zonulin (EGFR): dramatically reduced
- EGFR phosphorylation compared with single chain zonulin (EGFR; listed as two-chain mature HP2): significantly reduced
- small intestinal permeability (lacman ratio) vs BSA-treated controls (129/SvEv WT mice): failed to alter; also recorded: no changes
- gastroduodenal permeability (sucrose fractional excretion) vs BSA-treated controls (129/SvEv WT mice): failed to alter; also recorded: no changes
- TEER change / intestinal permeability, dose-response experiment ([1]; FIG. 3): no consistent TEER changes

From patent publication US20140363818A1, “EGFR and PAR2 Regulation of Intestinal Permeability” (UNIVERSITY OF MARYLAND, BALTIMORE, priority 2009, published 2014)
